Measurements reported in patent US9090582B2, “Highly pure pentamycin” (Biolotus Biotechnology AG, priority 2008, dated 2015).

Type: physicochemical
Description: The stability of more than 95% pure polymorph A on exposure to air and heat is compared to the stability of amorphous pentamycin (containing more than 95% pure pentamycin) as follows:
Amorphous pentamycin is prepared by precipitation from a solution of more than 95% pure pentamycin in dimethylsulfoxide by adding acetonitrile, followed by filtering and drying the precipitate.
More than 95% pure polymorph A of pentamycin is prepared by crystallization from a solution of more than 95% pure pentamycin in dimethylsulfoxide by adding ethyl acetate, followed by filtering and drying the precipitate.
A sample of the thus obtained amorphous pentamycin and a sample of the thus obtained polymorph A are incubated in an open vessel about six days at 60° C. and additionally 2 weeks at 40° C. The process of degradation is monitored by HPLC, measuring the decrease of the purity relative to the inital state at zero time (t0) set on 100%. After the incubation the amount of degradation of amorphous pentamycin is 11% whereas the amount of degradation of polymorph A is only 1%.

CCCCC[C@@H](O)[C@H]1C(=O)O[C@H](C)[C@@H](O)/C=C/C=C/C=C/C=C/C=C(\C)[C@@H](O)[C@H](O)[C@H](O)C[C@H](O)C[C@H](O)C[C@H](O)C[C@H](O)C[C@@H]1O [amorphous pentamycin, pentamycin]
amount of degradation (decrease of the purity relative to the initial state at zero time t0 set on 100%): 11%

CCCCC[C@@H](O)[C@H]1C(=O)O[C@H](C)[C@@H](O)/C=C/C=C/C=C/C=C/C=C(\C)[C@@H](O)[C@H](O)[C@H](O)C[C@H](O)C[C@H](O)C[C@H](O)C[C@H](O)C[C@@H]1O [polymorph A, pentamycin]
amount of degradation (decrease of the purity relative to the initial state at zero time t0 set on 100%): 1%
